Test results taken from PubChem BioAssay AID248 (DTP/NCI, 2004).
“And” between values parts separate entries of the source, which are not always exact repeats. Identical values can stand only once. Inconclusive results and toxic doses are left out.

System: L1210 leukemia ip in BDF1 mice, survival T/C
Assay: NCI In Vivo Anticancer Drug Screen. Data for tumor model L1210 Leukemia (intraperitoneal) in B6D2F1 (BDF1) mice
Conditions: endpoint: mean survival time, higher = longer survival
Outline: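 Tumor cells were implanted, animals were treated, and survival was followed. The result divides the treated measurement by the vehicle-control measurement.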

[1] = dose: 6.25 mg/kg/injection, schedule: Q01DX009 (ip), vehicle: Klucel (hydroxypropylcellulose) (HPC)
[2] = dose: 6.25 mg/kg/injection, schedule: Q04DX003 (ip), vehicle: Klucel (hydroxypropylcellulose) (HPC)
[3] = dose: 12.5 mg/kg/injection, schedule: Q01DX009 (ip), vehicle: Klucel (hydroxypropylcellulose) (HPC)
[4] = dose: 12.5 mg/kg/injection, schedule: Q04DX003 (ip), vehicle: Klucel (hydroxypropylcellulose) (HPC)
[5] = dose: 25.0 mg/kg/injection, schedule: Q01DX009 (ip), vehicle: Klucel (hydroxypropylcellulose) (HPC)
[6] = dose: 25.0 mg/kg/injection, schedule: Q04DX003 (ip), vehicle: Klucel (hydroxypropylcellulose) (HPC)
[7] = dose: 100.0 mg/kg/injection, schedule: Q04DX003 (ip), vehicle: Klucel (hydroxypropylcellulose) (HPC)
[8] = dose: 200.0 mg/kg/injection, schedule: Q04DX003 (ip), vehicle: Klucel (hydroxypropylcellulose) (HPC)
[9] = dose: 400.0 mg/kg/injection, schedule: Q04DX003 (ip), vehicle: Klucel (hydroxypropylcellulose) (HPC)
[10] = dose: 100.0 mg/kg/injection, schedule: Q04DX003 (ip), vehicle: saline with Tween-80
[11] = dose: 200.0 mg/kg/injection, schedule: Q04DX003 (ip), vehicle: saline with Tween-80
[12] = dose: 400.0 mg/kg/injection, schedule: Q04DX003 (ip), vehicle: saline with Tween-80
[13] = dose: 100.0 mg/kg/injection, schedule: Q01DX001 (ip), vehicle: carboxymethylcellulose (CMC)
[14] = dose: 200.0 mg/kg/injection, schedule: Q01DX001 (ip), vehicle: carboxymethylcellulose (CMC)
[15] = dose: 400.0 mg/kg/injection, schedule: Q01DX001 (ip), vehicle: carboxymethylcellulose (CMC)
[16] = dose: 200.0 mg/kg/injection, schedule: Q01DX001 (ip), vehicle: saline
[17] = dose: 400.0 mg/kg/injection, schedule: Q01DX001 (ip), vehicle: saline
[18] = dose: 100.0 mg/kg/injection, schedule: Q04DX002 (ip), vehicle: Klucel (hydroxypropylcellulose) (HPC)
[19] = dose: 200.0 mg/kg/injection, schedule: Q04DX002 (ip), vehicle: Klucel (hydroxypropylcellulose) (HPC)
[20] = dose: 100.0 mg/kg/injection, schedule: Q01DX009 (ip), vehicle: Klucel (hydroxypropylcellulose) (HPC)
[21] = dose: 200.0 mg/kg/injection, schedule: Q01DX009 (ip), vehicle: Klucel (hydroxypropylcellulose) (HPC)
[22] = dose: 400.0 mg/kg/injection, schedule: Q01DX009 (ip), vehicle: Klucel (hydroxypropylcellulose) (HPC)

CNC(=S)N/N=C(/C)CCC/C(C)=N/NC(=S)NC
T/C (dose: 1.56 mg/kg/injection, schedule: Q03HX024 (ip), vehicle: Klucel (hydroxypropylcellulose) (HPC)): 95 % of control
T/C (dose: 3.12 mg/kg/injection, schedule: Q01DX009 (ip), vehicle: Klucel (hydroxypropylcellulose) (HPC)): 96 % of control
T/C (dose: 3.12 mg/kg/injection, schedule: Q03HX024 (ip), vehicle: Klucel (hydroxypropylcellulose) (HPC)): 102 % of control
T/C [1]: 96 % of control
T/C (dose: 6.25 mg/kg/injection, schedule: Q03HX024 (ip), vehicle: Klucel (hydroxypropylcellulose) (HPC)): 97 % of control
T/C [2]: 108 % of control
T/C [3]: 92 % of control
T/C (dose: 12.5 mg/kg/injection, schedule: Q03HX024 (ip), vehicle: Klucel (hydroxypropylcellulose) (HPC)): 95 % of control
T/C [4]: 101 % of control
T/C [5]: 101 % of control
T/C (dose: 25.0 mg/kg/injection, schedule: Q03HX024 (ip), vehicle: Klucel (hydroxypropylcellulose) (HPC)): 92 % of control
T/C [6]: 103 % of control
T/C (dose: 50.0 mg/kg/injection, schedule: Q01DX009 (ip), vehicle: Klucel (hydroxypropylcellulose) (HPC)): 98 % of control
T/C (dose: 50.0 mg/kg/injection, schedule: Q04DX003 (ip), vehicle: Klucel (hydroxypropylcellulose) (HPC)): 101 % of control
T/C [7]: 103 % of control
T/C [8]: 93 % of control
T/C [9]: 108 % of control

COC(OC)c1[nH]c(=S)[nH]c(=O)c1Cc1ccc(-c2ccccc2)cc1
T/C [10]: 101 % of control
T/C [11]: 100 % of control
T/C [12]: 95 % of control

NC(=O)NNC(=O)NNC(N)=O
T/C (dose: 50.0 mg/kg/injection, schedule: Q01DX001 (ip), vehicle: carboxymethylcellulose (CMC)): 95 % of control
T/C [13]: 95 % of control
T/C [14]: 95 % of control
T/C [15]: 103 % of control

CC12CCC(O)C(CC1)C2 (configuration not stated)
T/C [10]: 107 % of control
T/C [11]: 88 % of control
T/C [12]: 95 % of control

CC(C)(C)N1CC(C(=O)O)C1
T/C (dose: 100.0 mg/kg/injection, schedule: Q01DX001 (ip), vehicle: saline): 97 % of control
T/C [16]: 103 % of control
T/C [17]: 97 % of control

CC(Cc1ccccc1)NCCn1cnc2c1c(=O)n(C)c(=O)n2C (configuration not stated)
T/C (dose: 6.25 mg/kg/injection, schedule: Q01DX009 (ip), vehicle: saline): 94 % of control
T/C (dose: 12.5 mg/kg/injection, schedule: Q01DX009 (ip), vehicle: saline): 98 % of control
T/C (dose: 25.0 mg/kg/injection, schedule: Q01DX009 (ip), vehicle: saline): 94 % of control
T/C (dose: 50.0 mg/kg/injection, schedule: Q01DX009 (ip), vehicle: saline): 102 % of control

O=C(N/N=C/c1cccc([N+](=O)[O-])c1)c1cccc2ccccc12
T/C [16]: 92 % of control
T/C [17]: 95 % of control

C[n+]1cccc(NC(=O)c2ccc(NC(=O)c3ccc(C(=O)Nc4ccc(NC(=N)N)cc4)cc3)cc2)c1
T/C (dose: 0.3 mg/kg/injection, schedule: Q01DX009 (ip), vehicle: saline): 118 % of control
T/C (dose: 0.6 mg/kg/injection, schedule: Q01DX009 (ip), vehicle: saline): 123 % of control
T/C (dose: 1.3 mg/kg/injection, schedule: Q01DX009 (ip), vehicle: saline): 155 % of control
T/C (dose: 2.0 mg/kg/injection, schedule: Q01DX009 (ip), vehicle: saline): 221 % of control
T/C (dose: 3.0 mg/kg/injection, schedule: Q01DX009 (ip), vehicle: saline): 294 % of control
T/C (dose: 5.0 mg/kg/injection, schedule: Q01DX001 (ip), vehicle: saline): 119 % of control and 124 % of control
T/C (dose: 5.0 mg/kg/injection, schedule: Q01DX009 (ip), vehicle: saline): 193 % of control
T/C (dose: 15.0 mg/kg/injection, schedule: Q01DX009 (ip), vehicle: saline): 123 % of control
T/C (dose: 20.0 mg/kg/injection, schedule: Q01DX001 (ip), vehicle: saline): 178 % of control
T/C (dose: 40.0 mg/kg/injection, schedule: Q01DX001 (ip), vehicle: saline): 201 % of control and 249 % of control

O=C(Nc1ccccc1NC(=O)C(Cl)(Cl)Cl)C(Cl)(Cl)Cl
T/C (dose: 87.5 mg/kg/injection, schedule: Q01DX009 (ip), vehicle: carboxymethylcellulose (CMC)): 88 % of control
T/C (dose: 175.0 mg/kg/injection, schedule: Q01DX009 (ip), vehicle: carboxymethylcellulose (CMC)): 93 % of control
T/C (dose: 350.0 mg/kg/injection, schedule: Q01DX009 (ip), vehicle: carboxymethylcellulose (CMC)): 96 % of control

Cc1nc(Cl)cc(Cl)c1C
T/C (dose: 100.0 mg/kg/injection, schedule: Q04DX003 (ip), vehicle: other): 106 % of control
T/C (dose: 178.0 mg/kg/injection, schedule: Q04DX003 (ip), vehicle: other): 103 % of control
T/C (dose: 200.0 mg/kg/injection, schedule: Q04DX003 (ip), vehicle: other): 104 % of control
T/C (dose: 266.0 mg/kg/injection, schedule: Q04DX003 (ip), vehicle: other): 103 % of control
T/C (dose: 400.0 mg/kg/injection, schedule: Q04DX003 (ip), vehicle: other): 89 % of control

CCCCCC(N)C(=O)O (configuration not stated)
T/C (dose: 12.5 mg/kg/injection, schedule: Q04DX002 (ip), vehicle: saline): 104 % of control
T/C (dose: 25.0 mg/kg/injection, schedule: Q04DX002 (ip), vehicle: saline): 100 % of control
T/C (dose: 50.0 mg/kg/injection, schedule: Q04DX002 (ip), vehicle: saline): 107 % of control

O=C(C=P(c1ccccc1)(c1ccccc1)c1ccccc1)CCl
T/C (dose: 6.25 mg/kg/injection, schedule: Q01DX001 (ip), vehicle: Klucel (hydroxypropylcellulose) (HPC)): 102 % of control
T/C [1]: 103 % of control
T/C [2]: 97 % of control
T/C (dose: 12.5 mg/kg/injection, schedule: Q01DX001 (ip), vehicle: Klucel (hydroxypropylcellulose) (HPC)): 98 % of control
T/C [3]: 101 % of control
T/C [4]: 97 % of control
T/C (dose: 25.0 mg/kg/injection, schedule: Q01DX001 (ip), vehicle: Klucel (hydroxypropylcellulose) (HPC)): 98 % of control
T/C [5]: 104 % of control
T/C [6]: 100 % of control

CC(=O)N(C)c1ccc(NC(=O)Cc2ccccc2)cc1
T/C (dose: 100.0 mg/kg/injection, schedule: Q01DX009 (ip), vehicle: saline with Tween-80): 96 % of control
T/C (dose: 200.0 mg/kg/injection, schedule: Q01DX009 (ip), vehicle: saline with Tween-80): 102 % of control
T/C (dose: 400.0 mg/kg/injection, schedule: Q01DX009 (ip), vehicle: saline with Tween-80): 95 % of control

C/C(=N\N=C(/C)c1ccc2cc3c(cc2c1)OCO3)c1ccc2cc3c(cc2c1)OCO3
T/C (dose: 75.0 mg/kg/injection, schedule: Q01DX001 (ip), vehicle: saline): 97 % of control
T/C (dose: 150.0 mg/kg/injection, schedule: Q01DX001 (ip), vehicle: saline): 92 % of control
T/C (dose: 300.0 mg/kg/injection, schedule: Q01DX001 (ip), vehicle: saline): 89 % of control

CC(C)(C)OC(=O)NC(Cc1ccccc1)C(=O)NN (configuration not stated)
T/C [18]: 108 % of control
T/C [19]: 97 % of control
T/C (dose: 400.0 mg/kg/injection, schedule: Q04DX002 (ip), vehicle: Klucel (hydroxypropylcellulose) (HPC)): 108 % of control

CC(=O)Nc1ccc(/C(C#N)=C/c2ccc(N(C)CCC#N)cc2)cc1
T/C [20]: 98 % of control
T/C [21]: 100 % of control
T/C [22]: 96 % of control

CCCCCCCCCCCCCCCCS(=O)(=O)N/N=C/c1cc(Cl)ccc1O
T/C [13]: 94 % of control
T/C [14]: 92 % of control
T/C [15]: 92 % of control

Nc1ccccc1C(=O)N/N=C/c1ccccc1Cl
T/C [20]: 102 % of control
T/C [21]: 97 % of control
T/C [22]: 86 % of control

O=C(c1ccccc1)C1C(c2ccccc2)N1CCl (configuration not stated)
T/C [20]: 98 % of control
T/C [7]: 92 % of control
T/C [21]: 94 % of control
T/C [8]: 105 % of control
T/C [22]: 100 % of control
T/C [9]: 107 % of control

CC(=O)NN(N=O)C(C)c1ccccc1 (configuration not stated)
T/C [18]: 108 % of control
T/C [19]: 105 % of control
